Our source for the Off-odor formation and Visible crystal formation values is patent US20030165447A1, “Topical leave-on compositions containing pantothenic acid and its derivatives to reduce the need for underarm shaving” (The Procter & Gamble Company, priority 2001, published 2003).

A short description of the series: Acid or hold stability of sample compositions held at 85° C. for 24 hours. The conditions noted are these: heated liquid held at 85° C., 24 hour period; 3.00% pantothenic acid derivative with 25.25% aluminum zirconium trichlorohydrate. The class given is physicochemical. As for the experimental part:
The topical leave-on compositions of the present invention are evaluated to determine the relative acid or hold stability of selected pantothenic acid derivatives as defined herein (e.g., ethyl panthenol, panthenyl triacetate) relative to other pantothenic acid derivatives (e.g., panthenol, calcium pantothenate). In this context, acid or hold stability is found to correlate with the lack of visibly apparent crystal formation within or extending from the sample product or by the lack of any significant off-odor development, over a 24 hours period at an elevated hold temperature of 85° C.
Each sample composition is formulated with the above-described ingredients and then held at 85° C. as a heated liquid for a 24 hour period and evaluated during that that period of time for any visibly apparent crystal formations within or extending from the formulation, and for any off-odor development. The evaluated product is maintained in the heated liquid state at 85° C. during the evaluation period to assimilate the elevated processing or hold temperatures often associated with the making of such antiperspirant and deodorant products, and to assimilate those conditions that favor acid-degradation of pantothenic acid derivatives as described herein.

On to `CCOCCCNC(=O)[C@H](O)C(C)(C)CO` [ethyl panthenol], for which the Off-odor formation result is listed as “little or no off-odor development” and the Visible crystal formation entry is listed as “do not exhibit the undesirable crystal formation”.

With `CC(=O)OCCCNC(=O)[C@H](OC(C)=O)C(C)(C)COC(C)=O` [panthenyl triacetate], the Off-odor formation result is “little or no off-odor development” and the Visible crystal formation entry was “do not exhibit the undesirable crystal formation”.
